# Measured values: the supplement of paper PMC11451515
# Test system: SEM cells
# Assay: cell viability relative to DMSO control; higher = less cytotoxic
# Details: 48 h
# Outline: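 Leukemia cells (NOMO1 or SEM, 500 cells/well; P12-Ichikawa, 1000 cells/well) were seeded in 5 μl in 1536-well plates after at least four passages of adaptation to each medium. They received library compounds in DMSO by pin dosing, 11 threefold points from 47 μM to 0.79 nM. Luminescence with CellTiter-Glo One was read after 48 h at 37°C. Viability is stated per plate relative to DMSO wells, with cell-free wells as background.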
# [1] = HPLM + 10% dialyzed FBS, 0.000781 µM
# [2] = HPLM + 10% dialyzed FBS, 0.00234 µM
# [3] = HPLM + 10% dialyzed FBS, 0.00702 µM
# [4] = HPLM + 10% dialyzed FBS, 0.0211 µM
# [5] = HPLM + 10% dialyzed FBS, 0.0632 µM
# [6] = HPLM + 10% dialyzed FBS, 0.19 µM
# [7] = HPLM + 10% dialyzed FBS, 0.569 µM
# [8] = HPLM + 10% dialyzed FBS, 1.71 µM
# [9] = HPLM + 10% dialyzed FBS, 5.12 µM
# [10] = HPLM + 10% dialyzed FBS, 15.4 µM
# [11] = HPLM + 10% dialyzed FBS, 46.1 µM
# [12] = RPMI 5 mM glucose + 10% FBS, 0.000781 µM
# [13] = RPMI 5 mM glucose + 10% FBS, 0.00234 µM
# [14] = RPMI 5 mM glucose + 10% FBS, 0.00702 µM
# [15] = RPMI 5 mM glucose + 10% FBS, 0.0211 µM
# [16] = RPMI 5 mM glucose + 10% FBS, 0.0632 µM
# [17] = RPMI 5 mM glucose + 10% FBS, 0.19 µM
# [18] = RPMI 5 mM glucose + 10% FBS, 0.569 µM
# [19] = RPMI 5 mM glucose + 10% FBS, 1.71 µM
# [20] = RPMI 5 mM glucose + 10% FBS, 5.12 µM
# [21] = RPMI 5 mM glucose + 10% FBS, 15.4 µM
# [22] = RPMI 5 mM glucose + 10% FBS, 46.1 µM
# [23] = RPMI 5 mM glucose + 10% dialyzed FBS, 0.000781 µM
# [24] = RPMI 5 mM glucose + 10% dialyzed FBS, 0.00234 µM
# [25] = RPMI 5 mM glucose + 10% dialyzed FBS, 0.00702 µM
# [26] = RPMI 5 mM glucose + 10% dialyzed FBS, 0.0211 µM
# [27] = RPMI 5 mM glucose + 10% dialyzed FBS, 0.0632 µM
# [28] = RPMI 5 mM glucose + 10% dialyzed FBS, 0.19 µM
# [29] = RPMI 5 mM glucose + 10% dialyzed FBS, 0.569 µM
# [30] = RPMI 5 mM glucose + 10% dialyzed FBS, 1.71 µM
# [31] = RPMI 5 mM glucose + 10% dialyzed FBS, 5.12 µM
# [32] = RPMI 5 mM glucose + 10% dialyzed FBS, 15.4 µM
# [33] = RPMI 5 mM glucose + 10% dialyzed FBS, 46.1 µM
Structure (SMILES),cell viability [1] [%],cell viability [2] [%],cell viability [3] [%],cell viability [4] [%],cell viability [5] [%],cell viability [6] [%],cell viability [7] [%],cell viability [8] [%],cell viability [9] [%],cell viability [10] [%],cell viability [11] [%],cell viability [12] [%],cell viability [13] [%],cell viability [14] [%],cell viability [15] [%],cell viability [16] [%],cell viability [17] [%],cell viability [18] [%],cell viability [19] [%],cell viability [20] [%],cell viability [21] [%],cell viability [22] [%],cell viability [23] [%],cell viability [24] [%],cell viability [25] [%],cell viability [26] [%],cell viability [27] [%],cell viability [28] [%],cell viability [29] [%],cell viability [30] [%],cell viability [31] [%],cell viability [32] [%],cell viability [33] [%]
Cc1ccc([S+](=O)([O-])Nc2nc3ccccc3nc2Nc2ccc3nsnc3c2)cc1,81.7,90.3,99.9,88.2,92.6,93.5,87.8,90.5,78.6,73.5,59.1,102,100,102,112,107,101,97.8,105,78.7,81.3,54.9,95,87.9,84.8,96,88.2,84.4,89.7,96.4,83.2,61.8,65.8
Cc1csc(NC(=O)c2sc3nc4c(c(C(F)(F)F)c3c2N)CCC4)n1,82,96.7,93.6,81.8,108,86.6,96,101,81.1,70.2,89.3,82.1,99.9,89.7,107,92.2,104,106,97.1,84,73.1,79,84.4,96.8,106,80.8,92.9,99.3,89.6,97,76.6,69.9,69.9
CC/1=C(/C(CC(=O)N1)C2=CC=C(C=C2)C(F)(F)F)C(=O)NC3=C(F)C=C4[NH]N=CC4=C3 (stereo unspecified),81.9,94.4,92.3,104,91.8,89.4,95.9,89.3,114,29.9,26.5,102,101,94.2,94.7,84.3,92.8,108,92,108,31.9,31.8,97.9,80.9,102,84,96.8,97.1,100,96.7,109,28.2,32
[O-]C(=O)C1=C(C(=C(Cl)C(=C1Cl)Cl)Cl)C/2=C/3\C=C(I)/C(=O)/C(=C3OC4=C2C=C(I)C(=C4I)[O-])I,111,106,122,106,118,111,120,116,106,109,73,108,121,130,133,134,113,115,130,114,109,83.2,–,–,–,–,–,–,–,–,–,–,–
COc1cc2c(Nc3ccc(Br)cc3F)ncnc2cc1OCC1CCN(C)CC1,45.3,81.6,94.3,69.3,71.4,76.8,72.2,65,79.4,31,66.2,67.3,124,111,112,118,110,84.2,88.7,98.1,58.9,74.1,40,83.4,91,89.2,63.7,80.7,81.7,63.2,79.1,42.5,63.5
CCC(=O)N[C@H]1CC[C@H](C(=O)N(C)c2ccc(-c3nc4ccccc4o3)cc2)C1,75.9,68,99.7,94.2,99.8,104,101,89,110,115,96.4,83.3,51.8,78.4,89.5,84.7,101,99.9,82.2,74.7,74.2,40,91.9,51.8,83.5,98.9,98.4,97,96,102,94.7,91,45.3
CN(C)CC[C@H](c1ccc(Cl)cc1)c1ccccn1,70.8,72.6,79.4,78.8,86.1,73.7,82.2,75.2,89.5,83.8,72.3,80.6,74.3,91,92.4,88.6,95.3,100,87.2,101,92.7,101,78.9,83.4,82.4,86,87.1,95.4,80.5,87.3,104,93.2,75.1
C[S+](=O)([O-])c1ccc(-c2cnc(N)c(C(=O)Nc3ccccc3)n2)cc1,99.6,98.3,115,107,123,106,127,110,95.2,23.7,20.2,99.1,87.6,90.7,105,107,133,129,119,103,33.1,25.3,98.5,103,98.5,99.6,96.2,111,99.8,105,82.7,16,15.4
O=C(O)CCn1c2c(c3ccccc31)C[C@H](N[S+](=O)([O-])c1ccc(F)cc1)CC2,112,115,112,110,111,106,96.8,126,118,107,104,120,102,118,109,122,108,86.7,117,104,107,96.4,112,119,119,123,122,120,90.6,106,128,120,124
C[C@@H](NC(=O)c1ncnc(N)c1Cl)c1ncc(C(=O)Nc2cc(C(F)(F)F)c(Cl)cn2)s1,–,–,–,–,–,–,–,–,–,–,–,113,119,105,127,125,126,127,121,121,112,106,123,128,112,126,139,134,135,137,131,119,96.2
C[C@]12CC[C@H]3[C@@H](C\C=C/4C[C@@H](O)CC[C@]34C)[C@@H]1CCC2=O,103,98.2,91.1,102,98.4,94.6,99.8,98.2,83.4,107,103,108,114,121,135,136,111,135,115,93.1,116,97.5,112,97.1,118,128,127,136,130,121,94.3,115,112
COc1cc([C@H]2Oc3cc([C@H]4Oc5cc(O)cc(O)c5C(=O)[C@@H]4O)ccc3O[C@@H]2CO)ccc1O,63.6,105,109,112,117,121,121,105,110,98.6,92.7,101,118,117,116,121,118,104,120,123,120,108,93.5,114,124,124,133,126,124,132,118,120,112
CC(C)c1ccc(Cn2ccc3c4c(N)nc(NC5CC5)nc4ccc32)cc1,99.5,100,113,100,113,107,67.6,53.2,37.5,31.9,6.32,107,114,120,80.5,106,120,102,110,35.5,19.5,8.49,97.7,113,123,80.5,125,124,134,119,46.7,33.3,9.93
CN1CCN2c3ncccc3Cc3ccccc3C2C1 (stereo unspecified),115,91.6,101,97.4,98.9,106,22,112,112,89.5,101,116,116,108,121,114,129,16.9,122,127,111,97,137,116,113,124,134,136,28.7,129,126,124,122
O=C1Nc2ccc(I)cc2/C1=C/c1cc(Br)c(O)c(Br)c1,98.4,107,103,104,101,111,107,96.5,105,94.6,76.8,113,113,105,112,102,115,118,110,108,88.4,67.5,115,109,115,111,121,106,121,110,104,89,62.5
CCN(C(=O)C/1=C(O)/C2=C(C=CC=C2Cl)N(C)C1=O)C3=CC=CC=C3,79.9,92.1,99.3,93.5,84.6,61.8,62,25.8,9.79,3.62,3.31,88.2,90.7,99.6,97.6,89.5,43,53.8,14.4,5.29,3.41,3.37,93.1,80.1,85.4,97.8,80.2,42.8,49.6,26.9,6.32,3.84,3.31
